Data set [1] has as its target T1, synthetic peptide fragment corresponding to residues 11 to 25 of the Alzheimer's Aβ peptide (Homo sapiens, UniProt P05067).
T1 construct: synthetic peptide fragment corresponding to residues 11 to 25 of the Alzheimer's Aβ peptide; host or cells: chemical synthesis (synthetic peptide)
Kind of data set: Thioflavin T fluorescence assay of Aβ peptide fragment aggregation into amyloid fibrils. The class given is biochemical. As to the method:
The capacity of Peptide X (SEQ ID NO:2) to inhibit the aggregation of a synthetic peptide fragment corresponding to residues 11 to 25 of the Alzheimer's Aβ peptide into amyloid fibrils was determined quantitatively using a standard assay based on the amyloid-dependent fluorescence of thioflavin T at 482 nm (Levine, 1993).
Peptide X (SEQ ID NO:2) was dissolved in water to a concentration of 10 mM (about 10 mg/ml). Alzheimer's Aβ peptide fragment, at a concentration of 50 μM (about 0.1 mg/ml) in 50 mM sodium acetate buffer (pH 5.0), was incubated at 25° C. in the absence or presence of Peptide X at concentrations ranging from 100 μM to 1 mM; the aggregation of the Aβ peptide fragment into insoluble β-fibres in the solutions was determined quantitatively after 20 minutes by measuring the fluorescence of […] added thioflavin T at 482 nm using an excitation wavelength of 440 nm.

Data set [2] is described as follows: Solubility in aqueous solutions. Type of data set: physicochemical. The note with it: over a wide range of pH values, completely soluble. From the text: The two positively charged arginine side chains assist the peptide to penetrate cell membranes and the blood-brain barrier by making electrostatic interactions with the negatively charged phosphate head groups of their constituent phospholipid molecules, resulting in the formation of inverted micelles which carry the peptide molecules across these membranes.

In a further data set the test system is Aβ peptide. Kind of data set: Inhibition of Aβ peptide aggregation into β-sheets (method not described). The class given is biochemical.

Non-standard residues stand in square brackets, D forms with d. Residues, ends and D or L forms follow the SMILES beside them. NMeR = CN[C@@H](CCCNC(=N)N)C(=O)O; NMeF = CN[C@@H](Cc1ccccc1)C(=O)O; NMeL = CN[C@@H](CC(C)C)C(=O)O

Here are results for two molecules from patent US7125838B1, “Peptides containing N-substituted L-amino acids for preventing β-strand association” (Senexis Limited, priority 1999, dated 2006).

As for `CC(=O)N[C@@H](CCCNC(=N)N)C(=O)N(C)[C@@H](CCCNC(=N)N)C(=O)N[C@@H](CC(C)C)C(=O)N(C)[C@@H](CC(C)C)C(=O)N[C@@H](Cc1ccccc1)C(=O)N(C)[C@@H](Cc1ccccc1)C(N)=O` [Peptide X, Nα-acetyl-(L-arginine)-(Nα-methyl-L-arginine)-(L-leucine)-(Nα-methyl-L-leucine)-(L-phenylalanine)-(Nα-methyl-L-phenylalanine)-NH2] (Ac-R[NMeR]L[NMeL]F[NMeF]-NH2), the inhibition (as a rule, the relative decrease from the control value, in per cent) at 100 µM in data set [1] (100 μM Peptide X, 50 μM Aβ fragment, 50 mM sodium acetate pH 5.0, 25° C., 20 minutes, thioflavin T at 482 nm) is more than 70%. Moreover, the “disaggregation of preformed amyloid fibrils” value in data set [1] (Peptide X added to the Aβ peptide fragment after incubation) is reported as “able to disaggregate preformed amyloid fibrils”. Further, the “reduction in Alzheimer's Aβ peptide aggregation (FIG. 6)” value in data set [1] (Peptide X concentration of 100 μM) came out at 70%. The solubility (commonly the dissolved amount per volume that the medium holds) was not below 10 mM in data set [2] and not below 10000 µg/mL in data set [2] (approximate equivalent of 10 mM).

As for “(L-arginine)-(L-lysine)-(L-valine)-(Nα-methyl-L-phenylalanine)-(L-tyrosine)-(L-threonine)-(L-tryptophan) [Arg-Lys-Val-mePhe-Tyr-Thr-Trp]”, the “inhibiting Aβ peptide aggregation into β-sheets” value in the data set on Aβ peptide is “effective”.
